Assay results reported in ChEMBL document CHEMBL6134931, “Lysine-Targeted Covalent Strategy Leading to the Discovery of Novel Potent PROTAC-Based PI3Kδ Degraders” (J Med Chem, 2025).
The source made the active and inactive calls. The rule behind the calls is not given here.

What was measured:
Pfeiffer = experiment: Antiproliferative activity against human Pfeiffer cells assessed as cell growth inhibition incubated for 72 hrs by MTT assay; assay type: functional
SU-DHL-6 [1] = experiment: Antiproliferative activity against human SU-DHL-6 cells assessed as cell growth inhibition incubated for 72 hrs by MTT assay; assay type: functional
SU-DHL-6 [2] = experiment: Inhibition of AKT phosphorylation in human SU-DHL-6 cells at 0.1 to 1 uM incubated for 24 hrs by Western blot analysis; assay type: cell-based; conditions: dose 0.1-1 µM
SU-DHL-6 [3] = experiment: Inhibition of AKT phosphorylation in human SU-DHL-6 cells at higher concentration incubated for 24 hrs by Western blot analysis; assay type: cell-based
SU-DHL-6 [4] = experiment: Cell cycle arrest in human SU-DHL-6 cells assessed as increase in G1 phase cells at 0.1 uM incubated for 24 hrs by PI staining based flow cytometric analysis; assay type: functional
SU-DHL-6 [5] = experiment: Induction of apoptosis in human SU-DHL-6 cells assessed as late apoptotic cells at 1 uM incubated for 24 hrs by Annexin V-FITC/PI staining based flow cytometric analysis (reference value: 4.75 %); assay type: functional
SU-DHL-6 [6] = experiment: Induction of apoptosis in human SU-DHL-6 cells assessed as early apoptotic cells at 0.1 uM incubated for 24 hrs by Annexin V-FITC/PI staining based flow cytometric analysis (reference value: 2.32 %); assay type: functional
SU-DHL-6 [7] = experiment: Induction of apoptosis in human SU-DHL-6 cells assessed as late apoptotic cells at 0.01 uM incubated for 24 hrs by Annexin V-FITC/PI staining based flow cytometric analysis (reference value: 4.75 %); assay type: functional
SU-DHL-6 [8] = experiment: Induction of apoptosis in human SU-DHL-6 cells assessed as early apoptotic cells at 0.01 uM incubated for 24 hrs by Annexin V-FITC/PI staining based flow cytometric analysis (reference value: 2.32 %); assay type: functional
SU-DHL-6 [9] = experiment: Induction of apoptosis in human SU-DHL-6 cells assessed as viable cells at 0.1 uM incubated for 24 hrs by Annexin V-FITC/PI staining based flow cytometric analysis (reference value: 92.54 %); assay type: functional; conditions: read-out: Activity
SU-DHL-6 [10] = experiment: Induction of apoptosis in human SU-DHL-6 cells assessed as late apoptotic cells at 0.1 uM incubated for 24 hrs by Annexin V-FITC/PI staining based flow cytometric analysis (reference value: 4.75 %); assay type: functional
SU-DHL-6 [11] = experiment: Induction of apoptosis in human SU-DHL-6 cells assessed as necrotic cells at 1 uM incubated for 24 hrs by Annexin V-FITC/PI staining based flow cytometric analysis (reference value: 0.39 %); assay type: functional
SU-DHL-6 [12] = experiment: Induction of autophagy in human SU-DHL-6 cells assessed as increase in LC3-II to LC3-I ratio at 1 to 100 nM incubated for 24 hrs by Western blot analysis; assay type: functional, cell-based; conditions: dose 1-100 nM
SU-DHL-6 [13] = experiment: Induction of apoptosis in human SU-DHL-6 cells assessed as viable cells at 1 uM incubated for 24 hrs by Annexin V-FITC/PI staining based flow cytometric analysis (reference value: 92.54 %); assay type: functional; conditions: read-out: Activity
SU-DHL-6 [14] = experiment: Induction of apoptosis in human SU-DHL-6 cells assessed as necrotic cells at 0.1 uM incubated for 24 hrs by Annexin V-FITC/PI staining based flow cytometric analysis (reference value: 0.39 %); assay type: functional
SU-DHL-6 [15] = experiment: Induction of apoptosis in human SU-DHL-6 cells assessed as early apoptotic cells at 1 uM incubated for 24 hrs by Annexin V-FITC/PI staining based flow cytometric analysis (reference value: 2.32 %); assay type: functional
SU-DHL-6 [16] = experiment: Induction of apoptosis in human SU-DHL-6 cells assessed as viable cells at 0.01 uM incubated for 24 hrs by Annexin V-FITC/PI staining based flow cytometric analysis (reference value: 92.54 %); assay type: functional; conditions: read-out: Activity
SU-DHL-6 [17] = experiment: Induction of apoptosis in human SU-DHL-6 cells assessed as necrotic cells at 0.01 uM incubated for 24 hrs by Annexin V-FITC/PI staining based flow cytometric analysis (reference value: 0.39 %); assay type: functional
SU-DHL-6 [18] = experiment: Cell cycle arrest in human SU-DHL-6 cells assessed as increase in G1 phase cells incubated for 24 hrs by PI staining based flow cytometric analysis; assay type: functional; conditions: dose 0.01-1 µM
SU-DHL-6 [19] = experiment: Inhibition of AKT phosphorylation in human SU-DHL-6 cells at 1 to 10000 nM incubated for 24 hrs by Western blot analysis; assay type: cell-based; conditions: dose 1-10000 nM

| SMILES | GI50 (SU-DHL-6 [1]) [nM] | GI50 (Pfeiffer) [nM] | inhibition (SU-DHL-6 [2]) | other results |
| --- | --- | --- | --- | --- |
| COc1ncc(-c2ccc3ncnc(N[C@H]4CCN(CCCCCCCC(=O)N[C@H](C(=O)N5C[C@H](O)C[C@H]5C(=O)NCc5ccc(-c6scnc6C)cc5)C(C)(C)C)C4)c3n2)cc1C(=O)Oc1ccccc1 | 900 | 1280 | Active |  |
| COc1ncc(-c2ccc3ncnc(N[C@H]4CCN(C(=O)C5CCN(CCCCCCCCCC(=O)N[C@H](C(=O)N6C[C@H](O)C[C@H]6C(=O)N[C@@H](C)c6ccc(-c7scnc7C)cc6)C(C)(C)C)CC5)C4)c3n2)cc1C(=O)Nc1ccccc1 | 900 |  |  | inhibition (SU-DHL-6 [3]): Active |
| COc1ncc(-c2ccc3ncnc(N[C@H]4CCN(C(=O)C5CCN(CCCCCCCCCC(=O)N[C@H](C(=O)N6C[C@H](O)C[C@H]6C(=O)NCc6ccc(-c7scnc7C)cc6)C(C)(C)C)CC5)C4)c3n2)cc1C(=O)Oc1ccccc1 | 200 | 370 | Active | Activity (SU-DHL-6 [4]): Active; More Potent Than 10 Um Idelalisib; Activity (SU-DHL-6 [5]): 72.97%; Activity (SU-DHL-6 [6]): 2.29%; Activity (SU-DHL-6 [7]): 4.79%; Activity (SU-DHL-6 [8]): 2.73%; viability at 0.1 µM (SU-DHL-6 [9]): 90.1%; Activity (SU-DHL-6 [10]): 7.29%; Activity (SU-DHL-6 [11]): 5.5%; Activity (SU-DHL-6 [12]): Active; viability at 1 µM (SU-DHL-6 [13]): 20.4%; Activity (SU-DHL-6 [14]): 0.31%; Activity (SU-DHL-6 [15]): 1.16%; viability at 0.01 µM (SU-DHL-6 [16]): 92.4%; Activity (SU-DHL-6 [17]): 0.11%; Activity (SU-DHL-6 [18]): Dose-dependent-effect; inhibition (SU-DHL-6 [19]): Active |
| COc1ncc(-c2ccc3ncnc(N[C@H]4CCN(C(=O)C5CCN(CCCCCCCCC(=O)N[C@H](C(=O)N6C[C@H](O)C[C@H]6C(=O)NCc6ccc(-c7scnc7C)cc6)C(C)(C)C)CC5)C4)c3n2)cc1C(=O)Oc1ccccc1 | 730 | 600 | Active |  |
| COc1ncc(-c2ccc3ncnc(N[C@H]4CCN(CCCCCCCCCC(=O)N[C@H](C(=O)N5C[C@H](O)C[C@H]5C(=O)NCc5ccc(-c6scnc6C)cc5)C(C)(C)C)C4)c3n2)cc1C(=O)Oc1ccccc1 | 2480 | 1370 | Active |  |
| COc1ncc(-c2ccc3ncnc(N[C@H]4CCN(C(=O)C5CCN(CCCCCCCCCCCCC(=O)N[C@H](C(=O)N6C[C@H](O)C[C@H]6C(=O)NCc6ccc(-c7scnc7C)cc6)C(C)(C)C)CC5)C4)c3n2)cc1C(=O)Oc1ccccc1 | 480 | 1060 | Active |  |
| COc1ncc(-c2ccc3ncnc(N[C@H]4CCN(C(=O)C5CCN(CCCCCCCC(=O)N[C@H](C(=O)N6C[C@H](O)C[C@H]6C(=O)NCc6ccc(-c7scnc7C)cc6)C(C)(C)C)CC5)C4)c3n2)cc1C(=O)Oc1ccccc1 | 760 | 770 | Active |  |
| COc1ncc(-c2ccc3ncnc(N[C@H]4CCN(C(=O)C5CCN(CCCCCCCCCC(=O)N[C@H](C(=O)N6C[C@@H](O)C[C@H]6C(=O)N[C@@H](C)c6ccc(-c7scnc7C)cc6)C(C)(C)C)CC5)C4)c3n2)cc1C(=O)Oc1ccccc1 | 870 |  |  | inhibition (SU-DHL-6 [3]): Active |
| COc1ncc(-c2ccc3ncnc(N[C@H]4CCN(C(=O)C5CCN(CCCCCCCCCCC(=O)N[C@H](C(=O)N6C[C@H](O)C[C@H]6C(=O)NCc6ccc(-c7scnc7C)cc6)C(C)(C)C)CC5)C4)c3n2)cc1C(=O)Oc1ccccc1 | 180 | 340 | Active | Activity (SU-DHL-6 [12]): Active; inhibition (SU-DHL-6 [19]): Active |
| COc1ncc(-c2ccc3ncnc(N[C@H]4CCN(CCCCCCCCC(=O)N[C@H](C(=O)N5C[C@H](O)C[C@H]5C(=O)NCc5ccc(-c6scnc6C)cc5)C(C)(C)C)C4)c3n2)cc1C(=O)Oc1ccccc1 | 1370 | 1250 | Active |  |
| COc1ncc(-c2ccc3ncnc(N[C@H]4CCN(C(=O)C5CCN(CCCCCCCCCCCC(=O)N[C@H](C(=O)N6C[C@H](O)C[C@H]6C(=O)NCc6ccc(-c7scnc7C)cc6)C(C)(C)C)CC5)C4)c3n2)cc1C(=O)Oc1ccccc1 | 400 | 1940 | Active |  |
| COc1ncc(-c2ccc3ncnc(N[C@H]4CCN(C(=O)C5CCN(C(=O)CCCCCCCCCN[C@H](C(=O)N6C[C@H](O)C[C@H]6C(=O)NCc6ccc(-c7scnc7C)cc6)C(C)(C)C)CC5)C4)c3n2)cc1C(=O)Oc1ccccc1 | 300 | > 10000 | Active |  |

More lines, main results first:

| GI50 (SU-DHL-6 [1]) [nM] | SMILES | GI50 (Pfeiffer) [nM] | inhibition (SU-DHL-6 [2]) | other results |
| --- | --- | --- | --- | --- |
| 2470 | COc1ncc(-c2ccc3ncnc(N[C@H]4CCN(C(=O)C5CCN(CCCCCC(=O)N[C@H](C(=O)N6C[C@H](O)C[C@H]6C(=O)NCc6ccc(-c7scnc7C)cc6)C(C)(C)C)CC5)C4)c3n2)cc1C(=O)Oc1ccccc1 | > 10000 | Active |  |
| > 10000 | COc1ncc(-c2ccc3ncnc(N[C@H]4CCN(C(=O)CCC(=O)NCC(=O)Nc5cccc6c5CN(C5CCC(=O)NC5=O)C6=O)C4)c3c2)cc1C#N (some centres not stated) |  | inactive |  |
| > 10000 | COc1ncc(-c2ccc3ncnc(N[C@H]4CCN(C(=O)CCCCCC(=O)Nc5cccc6c5CN(C5CCC(=O)NC5=O)C6=O)C4)c3c2)cc1C#N (some centres not stated) |  | inactive |  |
| > 10000 | COc1ncc(-c2ccc3ncnc(N[C@H]4CCN(C(=O)CCCCC(=O)Nc5cccc6c5CN(C5CCC(=O)NC5=O)C6=O)C4)c3c2)cc1C#N (some centres not stated) |  | inactive |  |
| 490 | COc1ncc(-c2ccc3ncnc(N[C@H]4CCN(C(=O)C5CCN(CCCCCCCCCC(=O)Nc6cccc7c6CN(C6CCC(=O)NC6=O)C7=O)CC5)C4)c3n2)cc1C(=O)Oc1ccccc1 (some centres not stated) | > 10000 | Active |  |
| 1230 | COc1ncc(-c2ccc3ncnc(N[C@H]4CCN(CCCCCCC(=O)N[C@H](C(=O)N5C[C@H](O)C[C@H]5C(=O)NCc5ccc(-c6scnc6C)cc5)C(C)(C)C)C4)c3n2)cc1C(=O)Oc1ccccc1 | 1410 | Active |  |
| 2630 | COc1ncc(-c2ccc3ncnc(N[C@H]4CCN(C(=O)C5CCN(CCCCCCC(=O)N[C@H](C(=O)N6C[C@H](O)C[C@H]6C(=O)NCc6ccc(-c7scnc7C)cc6)C(C)(C)C)CC5)C4)c3n2)cc1C(=O)Oc1ccccc1 | 2960 | Active |  |
| > 10000 | COc1ncc(-c2ccc3ncnc(N[C@H]4CCN(C(=O)CCC(=O)NCCCC(=O)Nc5cccc6c5CN(C5CCC(=O)NC5=O)C6=O)C4)c3c2)cc1C#N (some centres not stated) |  | inactive |  |
| > 10000 | COc1ncc(-c2ccc3ncnc(N[C@H]4CCN(C(=O)CCC(=O)NCCOCCOCC(=O)Nc5cccc6c5CN(C5CCC(=O)NC5=O)C6=O)C4)c3c2)cc1C#N (some centres not stated) |  | inactive |  |
| > 10000 | COc1ncc(-c2ccc3ncnc(N[C@H]4CCN(C(=O)CCC(=O)NCCC(=O)Nc5cccc6c5CN(C5CCC(=O)NC5=O)C6=O)C4)c3c2)cc1C#N (some centres not stated) |  | inactive |  |
| > 10000 | COc1ncc(-c2ccc3ncnc(N[C@H]4CCN(C(=O)CCCCCCC(=O)Nc5cccc6c5CN(C5CCC(=O)NC5=O)C6=O)C4)c3c2)cc1C#N (some centres not stated) |  | inactive |  |
| > 10000 | COc1ncc(-c2ccc3ncnc(N[C@H]4CCN(C(=O)CCCCCCC(=O)N[C@H](C(=O)N5C[C@H](O)C[C@H]5C(=O)NCc5ccc(-c6scnc6C)cc5)C(C)(C)C)C4)c3c2)cc1C#N |  | inactive |  |
| > 10000 | COc1ncc(-c2ccc3ncnc(N[C@H]4CCN(C(=O)CCC(=O)NCCCCCC(=O)Nc5cccc6c5CN(C5CCC(=O)NC5=O)C6=O)C4)c3c2)cc1C#N (some centres not stated) |  | inactive |  |
